In brackets after ≈: the same amount, converted by molar mass. Blank lines part the entries; values can stand above or below the compound they belong to.
Experiments:
[1] = Stability assay in human plasma; assay type: in vitro ADME; settings: 1 μM compound
Experimental: Compounds are incubated at a concentration of 1 μM in rat (mice/rabbit/dog/rabbit) or human plasma. Samples are taken at fixed time points and the remnant of compound is determined by LC-MS/MS after protein precipitation. Half life of the compound is expressed in minutes.

[2] = Stability towards drug metabolizing enzymes in lung S9; assay type: in vitro ADME; settings: lung S9 (from smokers); human lung S9, 1 μM compound, cofactors NADPH, UDPGA, PAPS, GSH
Experimental: A 1 μM solution of the compounds is incubated with a reaction mixture containing lung S9 (from smokers) as well as the cofactors NADPH, UDPGA, PAPS and GSH. Samples are collected at 0, 15, 30 and 60 minutes post incubation. Negative control samples incubated with […] and S9 fraction in the absence of cofactors are run in parallel. By using LC-MS/MS analysis, the percent of compounds remaining at each time point, the metabolic half-life of the compounds (expressed in minutes) and the metabolic half-life of the control compounds are determined.

recombinant PDE4D2 = target: T1, recombinant PDE4D2 (Homo sapiens, UniProt Q08499); assay: PDE4 inhibitory activity screening, PDE4D2 (HTRF, cAMP substrate); assay type: biochemical; settings: 40 nM cAMP, 30 minutes, room temperature
T1 construct: host or cells: Sf9 insect cells
T1 sequence (Q08499 303-809 limits assumed): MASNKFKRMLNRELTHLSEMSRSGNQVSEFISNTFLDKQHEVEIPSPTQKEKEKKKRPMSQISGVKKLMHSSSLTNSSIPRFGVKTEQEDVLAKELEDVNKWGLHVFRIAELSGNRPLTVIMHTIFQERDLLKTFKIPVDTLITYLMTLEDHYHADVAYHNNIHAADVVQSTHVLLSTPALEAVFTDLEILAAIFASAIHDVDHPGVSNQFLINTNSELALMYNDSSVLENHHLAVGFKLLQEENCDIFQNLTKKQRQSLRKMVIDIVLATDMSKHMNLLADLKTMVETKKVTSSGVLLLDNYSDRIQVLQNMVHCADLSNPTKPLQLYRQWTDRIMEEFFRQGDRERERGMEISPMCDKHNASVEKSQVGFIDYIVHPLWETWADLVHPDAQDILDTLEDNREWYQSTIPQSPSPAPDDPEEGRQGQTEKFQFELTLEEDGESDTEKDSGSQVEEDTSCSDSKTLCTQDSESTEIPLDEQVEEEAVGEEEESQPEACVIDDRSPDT
Experimental: (§1) Various concentrations of the test compounds were incubated with recombinant PDE4B1 or PDE4D2 (isolated from Sf9 cells), using 40 nM cAMP as enzyme substrate. Incubation time was set to 30 minutes. The reaction was carried out at room temperature. At the end of the incubation time, residual cAMP concentration was determined, using HTRF as detection method.
(§2) The IC50 values (concentration causing a half-maximal inhibition of control specific activity) and Hill coefficients (nH) were determined by non-linear regression analysis of the inhibition curves generated with mean replicate values using Hill equation curve fitting (Y=D+[(A−D)/(1+(C/C50)nH)], where Y=specific activity, D=minimum specific activity, A=maximum specific activity, C=compound concentration, C50=IC50 and nH=slope factor).

recombinant PDE4B1 = target: T2, recombinant PDE4B1 (Homo sapiens, UniProt Q07343); assay: PDE4 inhibitory activity screening, PDE4B1 (HTRF, cAMP substrate); assay type: biochemical; settings: 40 nM cAMP, 30 minutes, room temperature
T2 construct: host or cells: Sf9 insect cells
T2 sequence (Q07343 whole entry): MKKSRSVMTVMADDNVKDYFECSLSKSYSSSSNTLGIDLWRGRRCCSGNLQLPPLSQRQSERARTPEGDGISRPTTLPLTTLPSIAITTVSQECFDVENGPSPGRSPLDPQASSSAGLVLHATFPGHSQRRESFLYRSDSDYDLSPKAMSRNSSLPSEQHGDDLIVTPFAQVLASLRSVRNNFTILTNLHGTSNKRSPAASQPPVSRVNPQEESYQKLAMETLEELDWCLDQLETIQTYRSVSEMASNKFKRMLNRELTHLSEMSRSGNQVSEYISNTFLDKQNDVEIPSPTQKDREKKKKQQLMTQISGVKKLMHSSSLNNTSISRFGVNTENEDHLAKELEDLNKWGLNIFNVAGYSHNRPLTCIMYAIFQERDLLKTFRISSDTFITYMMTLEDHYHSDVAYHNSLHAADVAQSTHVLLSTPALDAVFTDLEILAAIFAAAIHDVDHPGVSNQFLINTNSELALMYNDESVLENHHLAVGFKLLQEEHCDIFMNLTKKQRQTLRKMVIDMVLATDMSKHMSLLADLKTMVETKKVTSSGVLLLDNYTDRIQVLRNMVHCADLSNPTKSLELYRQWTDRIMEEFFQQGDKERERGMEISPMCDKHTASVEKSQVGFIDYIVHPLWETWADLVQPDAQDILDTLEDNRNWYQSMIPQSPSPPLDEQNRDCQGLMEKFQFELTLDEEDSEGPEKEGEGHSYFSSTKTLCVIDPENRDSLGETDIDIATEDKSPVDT
Experimental: as §1, §2

[3] = Solubility in aqueous solution (PBS pH 7.4); assay type: physicochemical; settings: phosphate buffer saline (PBS), pH 7.4, aqueous buffer, kinetic from dmso stock; PBS pH7.4, 24 h, room temperature, theoretical concentration 200 μM
Experimental: Using a 10 mM stock solution of each compound in 100% DMSO, dilutions were prepared to a theoretical concentration of 200 μM in both phosphate buffer saline (PBS), pH7.4 and in 100% DMSO (as reference). Solutions (triplicates) were incubated at room temperature for 24 h on a shaker at 100 rpm. The solutions were then centrifugated at 13000 rpm for 30 min and the supernatant was further diluted to 2 μM in methanol. The supernatant was then analyzed by LC-MSMS. The concentration of compound in PBS supernatant was determined by comparing the MS peak area with that of the reference solution in DMSO.

[4] = Membrane permeability, Pampa assay; settings: for Papp (Pampa; 10^−6 cm/s): 10 μM in 10 mM PBS pH=7.4, 2% DMSO, 5 hours, room temperature
Experimental: (§3) The capacity of compounds of the invention to cross a lipophilic membrane was evaluated in a Pampa assay, using an assay plate containing structured layers of phospholipids supported on a PVDF filter (Benton Dickinson). […] Each compound was tested in triplicate and was prepared as a 10 μM solution in 10 mM PBS pH=7.4 buffer containing 2% DMSO. Compounds were dosed in the donor chamber of the assay plate and incubated for 5 hours, at room temperature. Additionally, an equilibrium solution plate containing 6 μM of test compound was prepared. Test compound concentration in donor and acceptor chamber and in the equilibrium plate was quantified using HPLC-MS/MS. The subsequently calculated permeability coefficients were reported as Papp.

in vitro = settings: PAMPA, pH 7.4
Experimental: as §3

SMILES: O=C(Nc1c(Cl)cncc1Cl)c1ccc(OC(F)F)c(OCCCCNC2CCOC2=O)c1 (centres unmarked) [Compound 11, N-(3,5-dichloropyridin-4-yl)-4-(difluoromethoxy)-3-{4-[(2-oxotetrahydrofuran-3-yl)amino]butoxy}benzamide]
- half-life at 1 μM [1]: < 15 min
- half-life at 1 μM [2]: > 60 min
- IC50 (recombinant PDE4D2): < 10 nM
- IC50 (recombinant PDE4B1): < 10 nM
- solubility at 24 h [3]: 10 to 100 µM (≈ 5.04 to 50.4 µg/mL)
- Papp at 5 h, 10 μM ([4]; PAMPA, pH 7.4): 5 ×10⁻⁶ cm/s

SMILES: O=C(Nc1c(Cl)cncc1Cl)c1ccc(OC(F)F)c(OCCCCSC2CCOC2=O)c1 (centres unmarked) [Compound 12, N-(3,5-dichloropyridin-4-yl)-4-(difluoromethoxy)-3-{4-[(2-oxotetrahydrofuran-3-yl)thio]butoxy}benzamide]
- half-life at 1 μM [1]: < 15 min
- half-life at 1 μM [2]: > 60 min
- IC50 (recombinant PDE4D2): < 10 nM
- IC50 (recombinant PDE4B1): < 10 nM
- solubility at 24 h [3]: 10 to 100 µM (≈ 5.21 to 52.1 µg/mL)
- Papp (Pampa; 10^−6 cm/s) [4]: 2.5 10^−6 cm/s

SMILES: O=C(Nc1c(Cl)cncc1Cl)c1ccc(OC(F)F)c(OCCCNC2CCOC2=O)c1 (centres unmarked) [Compound 14]
- half-life at 1 μM [1]: < 15 min
- half-life at 1 μM [2]: > 60 min
- IC50 (recombinant PDE4D2): 10 to 100 nM
- IC50 (recombinant PDE4B1): < 10 nM
- solubility at 24 h [3]: 10 to 100 µM (≈ 4.9 to 49 µg/mL)
- Papp (Pampa; 10^−6 cm/s) [4]: 7.3 10^−6 cm/s

- Papp at 5 h, 10 μM (in vitro): 9.5 ×10⁻⁶ cm/s
SMILES: CC(C)NCC(O)COc1cccc2ccccc12 (centres unmarked) [Propranolol]

- Papp at 5 h, 10 μM (in vitro): 0.008 ×10⁻⁶ cm/s
SMILES: COC(=O)[C@H]1[C@H]2C[C@@H]3c4[nH]c5cc(OC)ccc5c4CCN3C[C@H]2C[C@@H](OC(=O)c2cc(OC)c(OC)c(OC)c2)[C@@H]1OC [Reserpine]

Source: patent US9126933B2, “Soft PDE4 inhibitors” (Amakem NV, priority 2011, dated 2015)
